Measured values published in patent publication US20130331326A1, “METHOD OF INDUCING HEMATOPOIETIC RECONSTRUCTION” (DUKE UNIVERSITY, priority 2011, published 2013).
“Also recorded” adds a separate entry of the source.

Legend:
[1] = tested on: BM hematopoietic stem and progenitor cells; experiment: Hematopoietic regeneration in C57B16 mice after 700 cGy TBI (progenitor assays, competitive repopulation); type: in vivo, mouse
Procedure: BM cells were collected into PBS (Cellgro, Manassas, Va.) with 10% fetal bovine serum (Hyclone, Logan, Utah) and 1% penicillin/streptomycin (GIBCO, Grand Island, N.Y.). Viable BM cells were quantified using Trypan Blue Stain (Lonza, Basel, Switzerland) to exclude apoptotic and dead cells. Cells were then incubated with anti-c-kit, anti-Sca-1, anti-lineage cocktail, anti-CD41, anti-CD48, and anti-CD150 antibodies (Biolegend and eBiosciences, San Diego, Calif.; BD, San Jose, Calif.) to measure ckit^+sca-1^+lin^− (KSL) progenitor cells or CD150′CD41^−CD48^−KSL (SLAM/KSL) as previously described (Kiel et al, Cell 121:1109-1121 (2005)). Colony forming cells (CFCs) and CFU-S12 assays were also performed to measure functional hematopoietic stem/progenitor cell content. For CFCs, either whole BM or cultured lineage−cells, or KSL cells were plated onto methylcellulose (StemCell Technologies, Vancouver, BC, Canada), and colonies were scored on day 14. 1×10^5 BM or 2×10^5 cells were collected from donor mice and injected via tail vein into recipient C57B16 mice that had been given 950 cGy TBI. At day +12 post-injection, spleens from recipient mice were harvested and stained with Bouin's fixative solution (Ricca Chemical Company, Arlington, Tex.), and colonies were counted as previously described (Till and MeRadiat. Res. 14:213-222 (1961)). Complete blood counts were performed on a HemaVet 950 (Drew Scientific, Dallas, Tex.).
Competitive repopulation assays were also performed using donor C57B16 mice (CD45.2^+) that had been irradiated with 700 cGy TBI and gavaged daily with 10 μg/G erlotinib (Genentech, San Francisco, Calif.) or 150 μl water beginning on day 0 and continued through day +14. Donor BM cells were injected via tail vein into recipient B6.SJL mice (CD45.1^+) at a dose of 5×10^5 cells with a competing dose of host 1×10^5 BM MNCs. Tie2Cre;Bak1^−/−;Bax^FL/− mice were gavaged daily with 10 μg/G erlotinib or water starting day −3 and given 300 cGy TBI on day 0. Erlotinib administration continued until the timepoint of donor BM cell collection and analysis. Tie2Cre;Bak1^−/−;Bax^FL/− BM cells were injected via tail vein into recipient CD45.1^+ mice at a cell dose of 3×10^5 cells with a competing dose of host 1×10^5 CD45.1^+ cells. Multilineage hematopoietic reconstitution was measured in the PB of recipient mice by flow cytometry at 4, 8, and 12 weeks post-transplant. For survival studies with erlotinib administration, C57B16 mice were exposed to 700 cGy and then given 10 μg/G erlotinib or water starting day −3 and continuing daily through day +14.
Ten micrometer sections were cut using they CryoJane tape system (Instrumedics Inc, Hackensack, N.J., USA). Femurs were stained with hematoxylin and eosin or anti-mouse endothelial cell antibody (MECA-32) as previously described (Salter et al, Blood 113:2104-2107 (2009)) to assess BM cellularity and the BM vasculature after irradiation. Images were obtained using an Axiovert 200 microscope (Carl Zeiss Microscopy, Thornwood, N.Y.) or a Leica SP5 confocal microscope (Leica Microsystems Inc, Buffalo Grove, Ill.). Adobe Photoshop software (version 9.0.2, Adobe Systems, San JoSe, Calif.) was used to quantify positive signal as a measure of spatial distribution in the fields (Lehr et al, J. Histochem. Cytochem. 45:1559-1565 (1997), Lehr et al, J. Histochem. Cytochem. 47:119-126 (1999)).

BM KSL cells = experiment: Culture of non-irradiated BM KSL cells with TSF with and without EGF; type: cell-based, mouse; details: TSF + 20 ng/ml EGF, 7 days, vs cytokines alone
EGFR = experiment: Phosphorylation of EGFR-Y845 in BM KSL cells in culture; type: cell-based, mouse; details: wild type BM KSL cells treated with EGF in vitro (20 ng/mL, 15 minutes)
[2] = 700 cGy TBI, EGF 0.5 ug/G IP daily x 7 days, day +7

In the case of “EGF: epidermal growth factor; recombinant EGF (R&D Systems)”, the “increased BM KSL progenitor cells vs saline” value [1, 2] is reported as 6 fold, the “increased BM cells vs saline” value [1, 2] is reported as 2 fold and the “increased CFCs vs saline” value [1, 2] is reported as 7 fold. The “increased CFU-S12 vs saline” value [1, 2] was 8 fold, the BM cellularity ([1]; 700 cGy TBI, EGF daily x 7 days, day +7) was “preserved BM cellularity; also recorded: largely preserved” and the “BM HSC content by competitive repopulation assay” value ([1]; 700 cGy TBI, EGF x 7 days, BM at day +7, vs saline) was “significantly increased”. The “multilineage reconstitution of myeloid cells, B cells and T cells in recipients” value ([1]; BM from irradiated EGF-treated mice, 12 weeks post-transplant, vs saline) was “increased multilineage reconstitution”, the “repopulating cell content (donor stem cell engraftment in recipients)” value ([1]; Example 1, BM at day +7 or day +14 following 700 cGy TBI, EGF vs saline) was “significantly higher repopulating cell content” and the “recovery of bone marrow stem and progenitor cells” value ([1]; Example 1, recombinant EGF via intraperitoneal injection into irradiated wild type mice, vs controls) was “marked acceleration”. The “engraftment in secondary transplant recipients at 12 weeks” value ([1]; donor BM collected at day +7 following TBI, data not shown) was “no significant engraftment”, the “donor cell repopulation in secondary transplant recipients at 12 weeks” value ([1]; donor BM collected at day +14 following TBI from EGF-treated mice, vs saline) was “significantly increased; also recorded: markedly increased donor cell repopulation” and the “expansion of BM KSL cells and CFU-S12” value (BM KSL cells) was “increased significantly; also recorded: significant expansion”. The “EGFR signaling as measured by EGFR phosphorylation” value (EGFR) was “induced EGFR signaling”.
